pIC50: −log10 of the molar value.
What follows are molecules tested against T1, GST-tagged full-length FAK enzyme (PTK2) (Homo sapiens, UniProt Q05397) (assay: Biochemical Omnia Assay (FAK)). Conditions: not given.
T1 construct: GST-tagged full-length FAK enzyme (PTK2, Invitrogen PV4085); GST; purchased Invitrogen PV4085
T1 sequence (Q05397 whole entry): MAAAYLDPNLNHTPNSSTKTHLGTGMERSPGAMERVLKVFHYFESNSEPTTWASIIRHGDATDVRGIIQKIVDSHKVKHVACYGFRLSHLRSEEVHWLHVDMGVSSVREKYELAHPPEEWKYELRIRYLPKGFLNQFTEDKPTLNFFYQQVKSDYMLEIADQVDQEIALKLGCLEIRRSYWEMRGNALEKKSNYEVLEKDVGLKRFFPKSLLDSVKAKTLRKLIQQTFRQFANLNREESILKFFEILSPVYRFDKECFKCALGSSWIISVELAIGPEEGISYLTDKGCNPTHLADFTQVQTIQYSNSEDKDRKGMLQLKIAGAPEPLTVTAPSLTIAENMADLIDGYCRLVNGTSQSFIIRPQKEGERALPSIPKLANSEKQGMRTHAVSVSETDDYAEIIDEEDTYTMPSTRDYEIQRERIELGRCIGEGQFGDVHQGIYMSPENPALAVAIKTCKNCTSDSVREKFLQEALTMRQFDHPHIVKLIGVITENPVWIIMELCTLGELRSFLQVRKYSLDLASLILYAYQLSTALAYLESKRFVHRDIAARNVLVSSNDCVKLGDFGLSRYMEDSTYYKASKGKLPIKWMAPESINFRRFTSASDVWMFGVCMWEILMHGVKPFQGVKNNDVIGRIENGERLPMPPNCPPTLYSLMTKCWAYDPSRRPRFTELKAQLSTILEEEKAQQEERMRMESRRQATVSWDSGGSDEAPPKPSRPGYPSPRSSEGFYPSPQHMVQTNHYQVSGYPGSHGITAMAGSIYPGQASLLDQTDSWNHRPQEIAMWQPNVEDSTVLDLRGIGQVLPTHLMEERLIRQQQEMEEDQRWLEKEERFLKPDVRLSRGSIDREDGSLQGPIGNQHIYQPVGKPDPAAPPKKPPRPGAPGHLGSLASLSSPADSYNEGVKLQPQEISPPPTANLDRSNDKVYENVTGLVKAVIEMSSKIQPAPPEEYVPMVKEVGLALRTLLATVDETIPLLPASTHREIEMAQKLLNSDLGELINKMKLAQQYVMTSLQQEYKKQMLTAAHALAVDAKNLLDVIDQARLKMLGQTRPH
Protocol: Biochemical Omnia Assay Protocol
The Omnia Assay (Invitrogen) has been optimized for GST-tagged full-length FAK enzyme (PTK2, Invitrogen PV4085).
All compound concentrations were assayed in duplicate. Initial compound dilutions were prepared at 100× concentration in 100% DMSO from a 10 mM stock solution. Compounds were further diluted 1:25 in assay buffer resulting in a 4× concentrated solution.
In running the assay, 5 μL of the above 4× concentrated compound solution (or 4% DMSO for positive controls) was added to the assay plate followed by 5 μL of a solution containing peptide (40 μM) and ATP (200 μM) in assay buffer. The reaction was initiated by the addition of 10 μL of FAK (50 nM) in assay buffer, or assay buffer alone for negative controls. The increase in fluorescence due to peptide phosphorylation was monitored continuously as a function of time using a Spectramax M5 plate reader (Molecular Devices) equipped with SoftMax Pro 5.2 software.
IC50 values were determined from the slopes of the linear progress curves by non-linear curve-fitting using GraphPad Prism 5 (GraphPad Software, Inc.).
Molecule `CCOP1(=O)Cc2ccc(c(OC)c2)Nc2ncc(C(F)(F)F)c(n2)Nc2ccc(nc2C(=O)NC)-c2cnn(c2)CC(C)(C)CO1` (racemic) [Example 47] has a pIC50 greater than 6.40. With `CCOP1(=O)Cc2ccc(c(OC)c2)Nc2ncc(C(F)(F)F)c(n2)Nc2ccc(nc2C(=O)NC)-c2cn(nc2OC)CCCO1` (racemic) [Example 48] the pIC50 was greater than 6.40. Molecule `CCOP1(=O)Cc2ccc(c(OC)c2)Nc2ncc(C(F)(F)F)c(n2)Nc2ccc(nc2C(=O)NC)-c2cnn(c2Cl)CCCO1` (racemic) [Example 51] has a pIC50 greater than 6.40. Molecule `CCOP1(=O)Cc2ccc(c(OC)c2)Nc2ncc(C(F)(F)F)c(n2)Nc2ccc(nc2C(=O)NC)-c2cn(nc2C#N)CCCO1` (racemic) [Example 52] has a pIC50 greater than 6.40. In the case of `CCOP1(=O)Cc2ccc(c(OC)c2Cl)Nc2ncc(C(F)(F)F)c(n2)Nc2ccc(nc2C(=O)NC)-c2cnn(c2)CCCO1` (racemic) [Example 54], the pIC50 was greater than 6.40. `CCOP1(=O)Cc2ccc(c(OC)c2Cl)Nc2ncc(C(F)(F)F)c(n2)Nc2ccc(nc2C(=O)NC)-c2cnn(c2)CC2(COC2)CO1` (racemic) [Example 55] showed a pIC50 greater than 6.40. In the case of `CCOP1(=O)Cc2cc(OC)c(cc2Cl)Nc2ncc(C(F)(F)F)c(n2)Nc2ccc(nc2C(=O)NC)-c2cnn(c2)CCCO1` (racemic) [Example 56], the pIC50 was greater than 6.40.

The molecules below were run against T2, FAK (Homo sapiens, UniProt Q05397) (assay: Cell-based capture ELISA for inhibition of FAK autophosphorylation [pY397] in U87MG cells). Conditions: 50% (v/v) human plasma, mean IC50, read-out: FAK Activity Mechanistic (U87MG) HP.
T2 construct: endogenous in cells; host or cells: U87MG glioblastoma cells (ATCC HTB-14)
T2 sequence (Q05397 whole entry): as above
Protocol: Cell-Based Assays for Inhibition of FAK Autophosphorylation: MiaPaCa2 and U87MG
The ability of compounds to inhibit FAK autophosphorylation was determined in a cell-based capture ELISA assay using U87MG glioblastoma cells (ATCC, Cat # HTB-14) and the FAK [pY397]ELISA kit from Invitrogen (KHO0441). The assay determines the ability of compounds to block endogenous autophosphorylation of FAK stimulated by fibronectin. Cells plated on fibronectin coated 96-well plate were incubated with compounds at various concentrations in the complete growth medium for 2 h. Cell lysates were then prepared and FAK protein was captured onto a FAK antibody-coated 96-well ELISA plate. The phosphotyrosine content of FAK protein was then monitored by quantitation of degree of binding of an antibody that recognizes only the phosphorylated FAK at Y397 within the captured protein.
Reagents Provided in Biosource FAK [pY397]
Cultures of U87MG cells growing in MEM (Earles) containing non-essential amino acids, sodium pyruvate (1 mM), […] (1%) and 10% fetal bovine serum were detached by trypsin-EDTA and suspended in cell growth medium. Cells were then plated onto fibronectin (600 ng/well)-coated 96-well flat bottom plates at 1.7×10^4 cells per well in 60 uL cell growth medium and incubated overnight at 37° C. in a CO2 incubator.
Compound dilutions were prepared from 10 mM DMSO stocks by dilution in cell growth medium, the final concentration of DMSO in the assay being 0.6%. […] The cells were then incubated with compounds at 37° C. for 2 h. The medium was removed by aspiration and cells were lysed by addition of 20 uL of ice-cold cell lysis buffer per well. The plates were kept on ice for 20 min and 50 uL of standard diluent was added to each well. 50 uL of cell lysate from each well was transferred to respective wells in an assay plate and 50 uL of detection antibody was added to all wells except H1-H6 which were no antibody control wells. Capture assay plates were incubated overnight in a cold room.
Following incubation of the cell lysates and detection antibodies in the ELISA plate, the wells were washed 4 times with 120 uL of wash buffer (1×), then 100 uL of diluted HRP conjugated antibody (1:100 dil in diluent) was added to each well, and the plate was incubated at RT for 30 min. The wells were then washed for 4 times with 120 uL of wash buffer (1×) and 100 uL of chromogen was added to each well and incubated in the dark at RT for 5-10 min. 100 uL of stop solution was added to each well and the absorbance measured at 450 nm, 0.1 s.
Comparison of the assay signals obtained in the presence of compound with those of positive and negative controls (cells with no compound and no detection antibody being added), allows degree of inhibition of phospho-FAK [Y397] to be determined over a range of compound concentrations. […] The assay as described above was modified to determine the effect of inclusion of 50% (v/v) mouse or human plasma. In this assay, the compound plate was prepared as 2× concentration in 100 uL of 100% mouse or human plasma, and 60 uL of this was added to 60 uL of culture medium and incubated at 37° C. incubator for 2 h. The rest of the assay was carried out as described above.
Molecule `CCOP1(=O)Cc2ccc(c(OC)c2)Nc2ncc(C(F)(F)F)c(n2)Nc2ccc(nc2C(=O)NC)-c2cnn(c2)CC(C)(C)CO1` (racemic) [Example 47] has a pIC50 greater than 6.40. Molecule `CCOP1(=O)Cc2ccc(c(OC)c2)Nc2ncc(C(F)(F)F)c(n2)Nc2ccc(nc2C(=O)NC)-c2cn(nc2OC)CCCO1` (racemic) [Example 48] has a pIC50 greater than 6.40. `CCOP1(=O)Cc2ccc(c(OC)c2)Nc2ncc(C(F)(F)F)c(n2)Nc2ccc(nc2C(=O)NC)-c2cnn(c2Cl)CCCO1` (racemic) [Example 51] was tested, and the pIC50 was greater than 6.40. For `CCOP1(=O)Cc2ccc(c(OC)c2Cl)Nc2ncc(C(F)(F)F)c(n2)Nc2ccc(nc2C(=O)NC)-c2cnn(c2)CCCO1` (racemic) [Example 54], the pIC50 was 5.40 to 6.40. For `CCOP1(=O)Cc2ccc(c(OC)c2Cl)Nc2ncc(C(F)(F)F)c(n2)Nc2ccc(nc2C(=O)NC)-c2cnn(c2)CC2(COC2)CO1` (racemic) [Example 55], the pIC50 was greater than 6.40. `CCOP1(=O)Cc2cc(OC)c(cc2Cl)Nc2ncc(C(F)(F)F)c(n2)Nc2ccc(nc2C(=O)NC)-c2cnn(c2)CCCO1` (racemic) [Example 56] gave a pIC50 of less than 5.40.

Same assay, conditions: 50% (v/v) mouse plasma, mean IC50, read-out: FAK Activity Mechanistic (U87MG) MP
`CCOP1(=O)Cc2ccc(c(OC)c2)Nc2ncc(C(F)(F)F)c(n2)Nc2ccc(nc2C(=O)NC)-c2cn(nc2OC)CCCO1` (racemic) [Example 48] showed a pIC50 of 5.40 to 6.40. Work on `CCOP1(=O)Cc2ccc(c(OC)c2)Nc2ncc(C(F)(F)F)c(n2)Nc2ccc(nc2C(=O)NC)-c2cnn(c2Cl)CCCO1` (racemic) [Example 51] yielded a pIC50 of 5.40 to 6.40. For `CCOP1(=O)Cc2ccc(c(OC)c2Cl)Nc2ncc(C(F)(F)F)c(n2)Nc2ccc(nc2C(=O)NC)-c2cnn(c2)CC2(COC2)CO1` (racemic) [Example 55], the pIC50 was 5.40 to 6.40. With `CCOP1(=O)Cc2cc(OC)c(cc2Cl)Nc2ncc(C(F)(F)F)c(n2)Nc2ccc(nc2C(=O)NC)-c2cnn(c2)CCCO1` (racemic) [Example 56] the pIC50 was 5.40 to 6.40.

Same assay, conditions: no plasma present, mean IC50, read-out: FAK Activity Mechanistic (U87MG) NP
With `CCOP1(=O)Cc2ccc(c(OC)c2)Nc2ncc(C(F)(F)F)c(n2)Nc2ccc(nc2C(=O)NC)-c2cnn(c2)CC(C)(C)CO1` (racemic) [Example 47] the pIC50 was greater than 6.40. Work on `CCOP1(=O)Cc2ccc(c(OC)c2)Nc2ncc(C(F)(F)F)c(n2)Nc2ccc(nc2C(=O)NC)-c2cn(nc2OC)CCCO1` (racemic) [Example 48] yielded a pIC50 greater than 6.40. `CCOP1(=O)Cc2ccc(c(OC)c2)Nc2ncc(C(F)(F)F)c(n2)Nc2ccc(nc2C(=O)NC)-c2cnn(c2Cl)CCCO1` (racemic) [Example 51] gave a pIC50 greater than 6.40. For `CCOP1(=O)Cc2ccc(c(OC)c2)Nc2ncc(C(F)(F)F)c(n2)Nc2ccc(nc2C(=O)NC)-c2cn(nc2C#N)CCCO1` (racemic) [Example 52], the pIC50 was greater than 6.40. For `CCOP1(=O)Cc2ccc(c(OC)c2Cl)Nc2ncc(C(F)(F)F)c(n2)Nc2ccc(nc2C(=O)NC)-c2cnn(c2)CCCO1` (racemic) [Example 54], the pIC50 was greater than 6.40. With `CCOP1(=O)Cc2ccc(c(OC)c2Cl)Nc2ncc(C(F)(F)F)c(n2)Nc2ccc(nc2C(=O)NC)-c2cnn(c2)CC2(COC2)CO1` (racemic) [Example 55] the pIC50 was greater than 6.40. Work on `CCOP1(=O)Cc2cc(OC)c(cc2Cl)Nc2ncc(C(F)(F)F)c(n2)Nc2ccc(nc2C(=O)NC)-c2cnn(c2)CCCO1` (racemic) [Example 56] yielded a pIC50 greater than 6.40.
